Where two headings read alike, the source gives them in different places.
Tests used:
[1] = system: S. aureus strain UAMS-1; experiment: Minimum inhibitory concentration (MIC) testing, CLSI microtiter, with or without mupirocin; type: cell-based, Staphylococcus aureus; details: for MIC: Staphylococcus aureus
Description: Screen of Selleck Library. Members of the Selleck Library of Food and Drug […] approved drugs (Selleck Chemicals, Houston Tex., L1300) were screened for agents that potentiate the antimicrobial activity of mupirocin toward S. aureus strain UAMS-1. To do so, 1×10^5 colony forming units of UAMS-1 were added to individual wells of a 96-well microtiter plate, mixed with 0.03 μg/mL mupirocin (0.5× minimum inhibitory concentration) and 50 μM of test agent in Mueller Hinton broth (MHB; 100 μL total well volume). Microtiter plates were incubated at 37° C. for 16 hr, and individual wells were inspected for growth. Wells lacking growth were considered to represent agents that either potentiated the antimicrobial properties of mupirocin or mupirocin-independent antimicrobial microbial properties.
(§1) Antimicrobial Susceptibility Testing. Minimum inhibitory concentration (MIC) was tested in accordance with the Clinical and Laboratory Standards Institute (CLSI) guidelines. Briefly, 1×10^5 CFU of the indicated S. aureus strain was added to individual wells of a microtiter plate containing 88 μL of MHB media and two-fold increasing concentrations of mupirocin or test agent (0-128 μg ml^−1). Plates were incubated for 16 hr at 37° C. and wells were visually inspected for growth. The lowest concentration of mupirocin or test agent that inhibited S. aureus growth was considered to be the minimum inhibitory concentration. Fractional inhibitory concentration index (FIC) testing was performed to measure interactions between mupirocin and neomycin, as previously described. See Odds F C. 2003. Synergy, antagonism, and what the chequerboard puts between them. The Journal of antimicrobial chemotherapy 52:1. Briefly, in checkerboard format each row of the plate contained increasing concentrations of mupirocin (2-fold increments; 0-0.5 μg/mL), whereas each column contained increasing concentrations of neomycin (2-fold increments; 0-32 μg/mL). To every well (100 μl total volume) MHB containing 3×10^5 CFU of S. aureus strain UAMS-1 was added and the plate was incubated at 37° C. overnight (16-20 hr). The FIC was determined using the following formula: (MIC of Drug A in Combination/MIC of Drug A Alone)+(MIC of Drug B in Combination/MIC of Drug B Alone)=FIC. A synergistic interaction was defined as an FIC value≤0.5, additive as FIC value 0.5-1.0, no interaction as an FIC of 1-4, or an antagonistic interaction FIC>4.
Members of the Selleck library of 853 FDA approved drugs were screened for agents that potentiate the activity of mupirocin. […] Conversely, the antimicrobial activity of Nitazoxanide, Nitrofurazone, and Neomycin sulfate, increased in the presence of mupirocin.

[2] = system: S. aureus strain UAMS-1; experiment: Fractional inhibitory concentration index (FIC) checkerboard testing with mupirocin; type: cell-based, Staphylococcus aureus; details: combined with mupirocin, additive = 0.5-1.0
Description: as §1

[3] = system: S. aureus strain UAMS-1; type: in vivo, Staphylococcus aureus; details: Balb-c mice
Description: Nasal Colonization and Treatment of Mice. Ointments were evaluated for in vivo antimicrobial activity using a S. aureus nasal colonization model as previously described, but with modifications. See Kiser K B, Cantey-Kiser J M, Lee J C. 1999. Development and characterization of a Staphylococcus aureus nasal colonization model in mice. Infect Immun 67:5001-5006. The nostrils of awake mice were inoculated with 1×10^7 of the indicated S. aureus strain by pipetting 10 μL of culture directly into the nostrils and confirmed by the visualization of air bubbles appearing as the mouse breathed in and out. Mice nostrils were then treated with 10 μL PEG ointment (brought to 55° C. in a heat block to liquefy) containing either vehicle alone or the indicated antibiotic 45 min post inoculation and treatments were repeated every 8 hr for three days. […]
A murine model of S. aureus nasal colonization was used to compare the antimicrobial efficacy of mupirocin, neomycin, and the two agents when applied in combination. To do so, the nasal passage of Balb-c mice were inoculated with ˜1×10^7 colony forming units of S. aureus then treated three times a day for a total of three days, at which point the bacterial burden was measured and the antibiotic susceptibility of ten isolates from each animal was measured by MIC testing.

[4] = system: S. aureus strain UAMS-1; experiment: Murine dermal wound model of infection; type: in vivo, Staphylococcus aureus
Description: Dermal Wound Model of Infection and Treatment of Mice. The effects of ointment compilations were evaluated for in vivo antimicrobial activity using a S. aureus dermal wound model, but with modifications. See Guthrie K M, Agarwal A, Tackes D S, Johnson K W, Abbott N L, Murphy C J, Czuprynski C J, Kierski P R, Schurr M J, McAnulty J F. 2012. Antibacterial efficacy of silver-impregnated polyelectrolyte multilayers immobilized on a biological dressing in a murine wound infection model. Annals of surgery 256:371-377. Mice were anesthetized by intraperitoneal injection with a mixture of 100 mg ml^−1 Ketamine (Hospira Inc., Lake Forest Ill.) and 20 mg ml^−1 Xylazine (Lloyd Laboratories, Shenandoah Iowa) in NaCl at five μ1 per 1 g body weight. Pain relief in the form of 20 μL 0.5% Sensorcaine (APP Pharmaceuticals, Schaumburg, Ill.) was administered prior to dermal wounding. […]
To do so, a dermal wound was created on the back of Balb-c mice, inoculated with either S. aureus strain UAMS-1, USA300, or BAA-1708, and then treated with test agent suspended in PEG-based ointment twice a day for a total of 3 days, at which point bacterial burden was measured.

[5] = system: S. aureus strain UAMS-1; details: previous studies; cited from earlier work
[6] = system: strain BAA-1708; experiment: MIC testing; type: cell-based; details: Staphylococcus aureus, BAA1708; BAA-1708 (mupA), data not shown
Description: as §1, with “To every well (100 μl total volume) MHB containing 3×10^5 CFU of S. aureus strain UAMS-1 was added and the plate was incubated at 37° C. overnight (16-20 hr).” left out, “A synergistic interaction was defined as an FIC value≤0.5, additive as FIC value 0.5-1.0, no interaction as an FIC of 1-4, or an antagonistic interaction FIC>4.” left out

[7] = system: S. aureus RNase P; experiment: RNase P ptRNA processing assay; type: biochemical, Staphylococcus aureus; details: 250 μM, in vitro
Description: RNase P ptRNA Processing Assay. S. aureus RNase P activity assays were performed as previously described. See Eidem T M, Lounsbury N, Emery J F, Bulger J, Smith A, Abou-Gharbia M, Childers W, Dunman P M. 2015. Small-molecule inhibitors of Staphylococcus aureus RnpA-mediated RNA turnover and tRNA processing. Antimicrob Agents Chemother 59:2016-2028. Briefly, RNase P was first reconstituted by mixing an equimolar ratio of denatured rnpB and RnpA for 15 min at 37° C. then added (5 pmol) to 10 pmol of ptRNA^Tyr, and increasing concentrations of the indicated concentration of neomycin or the known RNase P inhibitor, RNPA2000 in a total volume of 20 μl. […] A FluorChem 5500 imaging system was used to visualize RNA products and quantified using ImageJ software (National Institutes of Health, Bethesda Md.). The percent RNase P activity was then calculated using the following equation: test compound tRNA^Tyr signal/mock tRNA^Tyr signal.
Aminoglycoside antibiotics, such has neomycin, contain a central deoxystreptamine ring decorated with amino-sugar modifications and act by binding to the major groove of the 16S rRNA to disrupt the fidelity of tRNA selection and block protein translation. […] A real-time fluorescence polarization activity assay to screen for inhibitors of bacterial ribonuclease P. Nucleic acids research 42:e159.

[8] = system: USA300; experiment: MIC testing; type: cell-based, Staphylococcus aureus; details: USA300, data not shown
Description: as §1, with “To every well (100 μl total volume) MHB containing 3×10^5 CFU of S. aureus strain UAMS-1 was added and the plate was incubated at 37° C. overnight (16-20 hr).” left out, “A synergistic interaction was defined as an FIC value≤0.5, additive as FIC value 0.5-1.0, no interaction as an FIC of 1-4, or an antagonistic interaction FIC>4.” left out

[9] = UAMS1, medium containing 0.25× the strain's mupirocin MIC, UAMS-1, read-out: MIC (+) Mup.
[10] = UAMS1, read-out: MIC (−) Mup., medium lacking mupirocin, UAMS-1

CC(=O)Oc1ccccc1C(=O)Nc1ncc([N+](=O)[O-])s1 [Nitazoxanide]
MIC [1, 9]: 8 µg/mL
MIC [1, 10]: 16 µg/mL
Fractional Inhibitory Concentration Index [2]: 0.75

NC(=O)N/N=C/c1ccc([N+](=O)[O-])o1 [Nitrofurazone]
MIC [1, 9]: 8 µg/mL
MIC [1, 10]: 16 µg/mL
Fractional Inhibitory Concentration Index [2]: 0.75

CC(C)c1ccc(OCC(=O)NNC(=S)NC(=O)c2ccco2)cc1 [RNPA2000]
nasal decolonization (in words) [3]: does not exhibit antimicrobial activity
wound decolonization (in words) [4]: does not exhibit antimicrobial activity
FIC measures with mupirocin [5]: < 0.5

C/C(=C\C(=O)OCCCCCCCCC(=O)O)C[C@@H]1OC[C@H](C[C@@H]2O[C@H]2[C@@H](C)[C@H](C)O)[C@@H](O)[C@H]1O [mupirocin]
MIC ([1]; UAMS1, UAMS-1 isolates from two 2% mupirocin treated mice with higher nasal burdens): 0.5 µg/mL
MIC ([1]; UAMS1, inoculating strain UAMS-1 and isolates from the other animals of the 2% mupirocin nasal treatment group): 0.125 µg/mL
MIC ([1]; UAMS1, read-out: mupirocin minimum inhibitory concentration (MIC), UAMS-1, as stated for the library screen): 0.3 µg/mL
increase in mupirocin tolerance ([1]; isolates from two higher-burden mice versus inoculating strain): 4 fold
MIC [6]: > 256 µg/mL

neomycin
MIC (+) Mup. ([1]; medium containing 0.25× the strain's mupirocin MIC, UAMS-1): 0.25 µg/mL
MIC (−) Mup. ([1]; medium lacking mupirocin, UAMS-1): 0.5 µg/mL
Fractional Inhibitory Concentration Index [2]: 0.75
inhibition of RNase P-catalyzed maturation of precursor tRNA^Tyr [7]: inhibit
MIC [8]: 128 µg/mL

Reference: patent US10525032B2, “Antimicrobial compositions comprising mupirocin and neomycin” (University of Rochester, priority 2015, dated 2020)
